Reference: US20120108624A1, “TREATMENT OF DYSKINESIA RELATED DISORDERS” (priority 2009, published 2012)
Where a name gives a salt, the structure may show the parent alone.

Experiments:
[1] = system: rats with unilateral 6-OHDA lesions; test: 6-OHDA rat model (rotation response); type: in vivo; conditions: rotation in unilateral 6-OHDA rats; for D1/D2 ratio: MED and MED to overcome Nemonapride block
Description: Dopamine agonists can have activity at either the D1 receptors, the D2 receptors, or both. The rotation response in rats with unilateral 6-OHDA lesions can be used to assess compounds for their ability to stimulate both receptor types and induce rotation (Ungerstedt and Arbuthnott, Brain Res., 1970, 24, 485; Setler, et al. Eur. J. Pharmacol., 1978, 50(4), 419; and Ungerstedt, et al. “Advances in Dopamine Research” (Kohsaka, Ed.), Pergamon Press, 1982, Oxford, p. 219). 6-OHDA (6-hydroxydopamine) is a neurotoxin used by neurobiologists to selectively kill dopaminergic neurons at the site of injection in the brain in experimental animals. In the 6-OHDA model, the nigrostraital dopamine cells are destroyed on one side of the brain (unilateral) by injecting 6-OHDA into the median forebrain bundle, located in front of the substantia nigra. This unilateral injection combined with stimulation by dopamine agonists such as apomorphine will induce rotation behaviour as only one side of the brain is stimulated. Experiments consist of determining a minimum effective dose (MED) to induce rotation for the compound in question. Once a MED has been determined, a second experiment is performed to determine the MED of the compound to overcome Nemonapride block (MEDNemonapride). Nemonapride is a D2 antagonist that blocks the D2 receptor, therefore any observed rotations would be dependent upon activity at the D1 receptor. Finally, once the MEDNemonapride is known a third experiment is run using the MEDNemonapride dose and observing the effect of the D1 antagonist, SCH 23390 alone, the D2 antagonist, Nemonapride alone and finally, the effect of combined treatment with SCH 23390 and Nemonapride. […] This model was validated using apomorphine as the proof-of-principle compound for mixed D1/D2 agonists.
Dopamine agonists can have activity at either the D1 receptors, the D2 receptors, or both. The rotation response in rats with unilateral 6-OHDA lesions can be used to assess compounds for their ability to stimulate both receptor types and induce rotation (Ungerstedt and Arbuthnott, Brain Res. 24, 485 (1970); Setler, et al., Eur. J. Pharmacol., 50(4), 419 (1978); and Ungerstedt, et al., “Advances in Dopamine Research” (Kohsaka, Ed.), Pergamon Press, 1982, Oxford, p. 219). 6-OHDA (6-hydroxydopamine) is a neurotoxin used by neurobiologists to selectively kill dopaminergic neurons at the site of injection in the brain in experimental animals. In the 6-OHDA model the nigrostraital dopamine cells are destroyed on one side of the brain (unilateral) by injecting 6-OHDA into the median forebrain bundle, located in front of the substantia nigra. […] Once a MED has been determined, a second experiment is performed to determine the MED of the compound to overcome Nemonapride block (MEDNemonapride). […]

[2] = system: Sprague Dawley rats with unilateral 6-OHDA lesions; test: Induction of dyskinesia model with naive 6-OHDA rats (AIMS); type: in vivo, rat; conditions: once daily s.c. for 14 days, scored up to day 12
Experimental: Twenty male Sprague Dawley rats with unilateral 6-OHDA lesions were used to test induction of dyskinesia by compound 10 (administered subcutaneously; n=7; group 1) compared to L-DOPA/benserazide (6 mg/kg / 15 mg/kg subcutaneously; n=7; group 2) and apomorphine (1 mg/kg subcutaneously; n=6; group 3). Benserazide is a DOPA decarboxylase inhibitor which is unable to cross the blood-brain barrier; it is used to prevent metabolism of L-DOPA to dopamine outside the brain. Three weeks after 6-OHDA surgery, the animals were tested for their rotation response induced by 2.5 mg/kg amphetamine, which induces ipsilateral circling (amphetamine increases the level dopamine in the brain via the intact neurons on the unlesioned side causing the animals to rotate in the opposite direction as compared to their response to direct agonists such as L-DOPA and apomorphine that act predominantly on the lesioned side of the brain). […] Rats where then randomly allocated to the three treatment groups balancing the groups for the animals' rotation response on amphetamine.
Rats received drug for 14 consecutive days and were scored on days 1, 2, 3, 4, 5, 8, 10 and 12. […] Following this experiment all rats were given subcutaneous injections of compound 10 from day 15-19 in order to determine how Example I influenced the severity of dyskinesia seen in the apomorphine and L-DOPA groups. Dykinesia scoring was performed on day 19 of the experiment (corresponding to 5 days on compound 10).

MPTP treated marmosets = test: Anti-Parkinsonian effects in MPTP-treated common marmosets; type: in vivo, common marmoset; conditions: dosed p.o.
Experimental: (§1) The experiments were conducted using 6 MPTP treated marmosets (2.0 mg/kg daily for up to 5 consecutive days dissolved in sterile 0.9% saline solution). All the animals had previously been treated with L-DOPA (12.5 mg/kg p.o., plus carbidopa 12.5 mg/kg p.o.) administered daily for up to 30 days in order to induce dyskinesia. […] Domperidone was administered 60 min before any of the test compounds. Domperidone is an anti-dopaminergic drug that suppresses nausea and vomiting. Locomotor Activity was assessed using test cages that are comprised of 8 photo-electric switches comprised of 8 infra-red beams which are strategically placed in the cage and interruption of a beam is recorded as one count. […] The assessment of motor disability was performed by a trained observer blinded to the treatment.
as §1, with “antidopaminergic” for “anti-dopaminergic”
as §1, with “compounds.” for “compounds. Domperidone is an anti-dopaminergic drug that suppresses nausea and vomiting.”

[3] = system: 'parkinsonian' rats (6-OHDA rats); test: Dyskinesia rat model, Example 3 (AIMs, test drug vs. L-DOPA/benserazide); type: in vivo
Experimental: A rat dyskinesia model reported in the literature (Lundblad, et al., Eur. J Neurosci., 2002, 15, 120) was used to examine the effects of the active metabolite vs. L-DOPA/benserazide with respect to dyskinesias that were assessed as abnormal involuntary movements (AIMs) in ‘parkinsonian’ rats.
0-180 min. Animals were scored for dyskinesias.
(§2) At days 1, 3, 5, 8 and 12, animals were scored according to AIM-scoring by recording dyskinesias using the Abnormal Involuntary Movement Scale (AIMS) as described previously (Lundblad, et al., Eur. J Neurosci., 2002, 15, 120). Days 15-26: Group A animals were treated with the test drug (as group B) instead of L-DOPA/benserazide. Day 15, 16, 17, 19, 22, 24 and 26: Animals scored according AIM-scoring.

[4] = system: rats with unilateral 6-OHDA lesions; test: Dyskinesia profile in rats with unilateral 6-OHDA lesions (summary statements); type: in vivo, rat; conditions: for induction of dyskinesias compared with L-DOPA and apomorphine / reduction of L-DOPA induced dyskinesias compared with D2 agonists (pramipexole): rats with unilateral 6-OHDA lesions
[5] = Conversion into the active metabolite upon in-vivo administration
'parkinsonian' rats = test: Dyskinesia rat model, Example 4 (AIMs, Compound 12 vs. L-DOPA/Benserazide); type: in vivo
Experimental: A rat dyskinesia model reported in the literature (Lundblad, et al., Eur. J Neurosci., 2002, 15, 120) was used to examine the effects of Compound 12 vs. L-DOPA/Benserazide with respect to dyskinesias that were assessed as abnormal involuntary movements (AIMs) in ‘parkinsonian’ rats.
Throughout the study animals received L-DOPA/Benserazide (6 mg/kg and 15 mg/kg subcutaneous) or Compound 12 (group B) once daily at t=−20 min. 0-180 min. Animals were scored for dyskinesias. Days 1-14: All animals were dosed with L-DOPA/Benserazide (group A) or Compound 12 (group B).
as §2, with “previously.” for “previously (Lundblad, et al., Eur. J Neurosci., 2002, 15, 120).”, “Compound 12” for “the test drug”, “L-DOPA/Benserazide.” for “L-DOPA/benserazide.”

[6] = system: mouse model of severe dopamine depletion; test: Superiority model (MPTP mice treated with AMPT, motility); type: in vivo; conditions: AMPT 250 mg/kg s.c., last 1 hour of recorded data
Experimental: On the day of the experiment, mice were treated with AMPT (250 mg/kg subcutaneously) and then returned to their home cages for 1.5 hours after which they were placed in individual cages in the motility unit. AMPT (alpha-methyl-p-tyrosine) is a drug that temporarily reduces brain catecholamine activity (in this case especially dopamine levels). […] Various dopaminergic compounds were tested for their ability to reverse the motility deficits produced in this model. […] Benserazide is a DOPA decarboxylase inhibitor which is unable to cross the blood-brain barrier; it is used to prevent metabolism of L-DOPA to dopamine outside the brain.
On the day of the experiment, mice were treated with AMPT (250 mg/kg subcutaneously) and then returned to their home cages for 1.5 hours after which they are placed in individual cages in the motility unit. AMPT (alpha-methyl-p-tyrosine) is a drug that temporarily reduces brain catecholamine activity (in this case especially dopamine levels). […] Various dopaminergic compounds are tested for their ability to reverse the motility deficits produced in this model. […] Benserazide is a DOPA decarboxylase inhibitor which is unable to cross the blood-brain barrier; it is used to prevent metabolism of L-DOPA to dopamine outside the brain.
On the day of the experiment, mice were treated with AMPT (250 mg/kg subcutaneously) and then returned to their home cages for 1.5 hours after which they were placed in individual cages in the motility unit. AMPT (alpha-methyl-p-tyrosine) is a drug that temporarily reduces brain catecholamine activity (in this case especially dopamine levels). […] Various dopaminergic compounds were tested for their ability to reverse the motility deficits produced in this model. […] Benserazide is a DOPA decarboxylase inhibitor which is unable to cross the blood-brain barrier; it was used to prevent metabolism of L-DOPA to dopamine outside the brain.

SMILES	dyskinesia scores (AIMS) [2]	D1/D2 ratio [1]	duration of reversal of motor disability compared to L-DOPA (MPTP treated marmosets)	efficacy compared to L-DOPA (MPTP treated marmosets)	locomotor activity and motor disability (MPTP treated marmosets)	induction of dyskinesias compared with L-DOPA and apomorphine [4]	reduction of L-DOPA induced dyskinesias compared with D2 agonists (pramipexole) [4]	conversion into active metabolite (Compound 10) [5]	reversal of motility deficits / restoration of locomotion [6]	other results
CCCN1CCC[C@@H]2Cc3c(ccc(O)c3O)C[C@H]21 [Compound 10, (4aR,10aR)-1-Propyl-1,2,3,4,4a,5,10,10a-octahydro-benzo[g]quinoline-6,7-diol hydrobromide]	about 30									duration of action [1]: ca. 18 h
CCCN1CCC[C@@H]2Cc3c(ccc4c3OCO4)C[C@H]21 [Compound 11, (6aR,10aR)-7-n-Propyl-6,6a,7,8,9,10,10a,11-octahydro-1,3-dioxa-7-aza-cyclopenta[a]anthracene hydrochloride]		about 2	prolonged reversal of motor disability	as efficacious as L-DOPA	dose-related increases in locomotor activity and reversal of motor disability	induce less dyskinesias than L-DOPA and apomorphine	reduce L-DOPA induced dyskinesias more effectively than D2 agonists	Convert into the Catechol-Containing Active Metabolite		dyskinesia scores (AIMS) ([3]; after eight days of once daily treatment, constant until day 12): 2-4; induction of dyskinesia compared with L-DOPA ([3]; days 1-14): significantly less dyskinesia than L-DOPA; reduction of the dyskinesias induced by L-DOPA ([3]; group A shifted from L-dopa/benserazide to the test drug, days 15-26): able to reduce the dyskinesias induced by L-DOPA; reversal of dyskinesias induced by L-DOPA/benserazide and apomorphine ([4]; rats lesioned with 6-OHDA): reversed dyskinesias
CCCN1CCC[C@@H]2CC3=C(CCCC3=O)C[C@H]21 [Compound 12, (4aR,10aR)-1-n-propyl-2,3,4,4a,5,7,8,9,10,10a-decahydro-1H-benzo[g]quinolin-6-one]			prolonged reversal of motor disability	as efficacious as L-DOPA	dose-related increases in locomotor activity and reversal of motor disability	induces less dyskinesias than L-DOPA and apomorphine	reduces L-DOPA induced dyskinesias more effectively than D2 agonists	Convert into the Catechol-Containing Active Metabolite		dyskinesia scores (AIMS) ('parkinsonian' rats; after eight days of once daily treatment): 10-25; dyskinesia scores (AIMS) after shifting group A from L-DOPA/benserazide ('parkinsonian' rats; compound 12 for 10 days after L-DOPA/benserazide): 30-35; induction of dyskinesia compared with L-DOPA ('parkinsonian' rats; days 1-14): significantly less dyskinesia than L-DOPA; reduction of the dyskinesias induced by L-DOPA ('parkinsonian' rats; group A shifted to compound 12, days 15-26): able to reduce the dyskinesias induced by L-DOPA
N[C@@H](Cc1ccc(O)c(O)c1)C(=O)O [L-DOPA]	about 70				increased locomotor activity and reversed motor disability				able to reverse motility deficits	
CN1CCc2cccc3c2[C@H]1Cc1ccc(O)c(O)c1-3 [apomorphine]	about 70	about 3							restored locomotion	reversal of motility deficits / restoration of locomotion ([6]; listed as Apomorphine): able to reverse motility deficits
CCCN(CCc1cccs1)[C@H]1CCc2c(O)cccc2C1 [rotigotine, reference compound]										D1 component [1]: could not be observed
